Experiments:
D2R = assay: Simulation of receptor occupancy over time from kon and koff; conditions: simulation with a KD concentration of each agonist
Excerpt: We extended these studies with a Tag-lite receptor binding assay using a D2R construct with an amino-terminal SNAP tag and the fluorescently labelled agonist (±)-4′-amino-2-(N-phenethyl-N-propyl)-amino-5-hydroxytetralin (PPHT). […] The association rate of a ligand is often thought to be diffusion limited. […] Using these kinetic parameters, we performed a simulation to estimate the receptor occupancy of a KD concentration of each agonist over time (Fig. 4e).
Kinetic binding parameters of kon (a), koff (b) and t1/2 (c) were determined in a competition kinetic binding assay using a Tag-lite binding assay and the fluorescently labelled agonist PPHT as the tracer ligand (Supplementary Table 6). […] All values are expressed as mean±s.e.m. from three experiments. (e) The values of kon and koff obtained in the competition kinetic assay were used to simulate receptor occupancy over time using equation (9) and the concentration of ligand equivalent to its KD (see Supplementary Table 6).
where Ymax reflects maximum binding of a concentration of ligand and kob is determined by equation (8).

[1] = molecular target: SNAP-tagged human dopamine D2L (Homo sapiens, UniProt P14416); assay: Tag-lite PPHT-red competition kinetic binding (HTRF); conditions: SNAP-D2LR-CHO membranes; 100 μM Gpp(NH)p; 37 °C
Procedure: To terbium label the SNAP-CHO-D2L cells, cell culture medium was removed from the T175 cm^2 flasks containing confluent adherent SNAP-CHO-D2L cells. Twelve millilitres of Tag-lite labelling medium containing 100 nM of SNAP-Lumi4-Tb was added to the flask and incubated for 1 h at 37 °C under 5% CO2. Cells were then washed 2 × in 15 ml PBS (GIBCO, Invitrogen, Paisley, UK) to remove the excess of SNAP-Lumi4-Tb and detached using 5 ml of enzyme-free Hank's-based cell dissociation buffer (GIBCO, Invitrogen, Paisley, UK) and collected in a vial containing 5 ml of DMEM/Nutrient F-12 Ham, 2 mM glutamine supplemented 10% FCS. Cells were pelleted by centrifugation (5 min at 1,500 r.p.m.) and the pellets were frozen to −80 °C before preparation of membranes.
All subsequent steps described were conducted at 4 °C, to avoid receptor degradation. Twenty millilitres of wash buffer (10 mM HEPES and 10 mM EDTA pH 7.4) was added to the pellet of terbium-labelled cells (equivalent to 1 × t175 cm^2). […] The supernatant was discarded and the pellet was homogenized and centrifuged as described above in wash buffer. The final pellet was suspended in ice-cold 10 mM HEPES and 0.1 mM EDTA pH 7.4, at a concentration of 5–10 mg m^−1. Protein concentration was determined by the bicinchoninic acid assay using BSA as a standard and aliquots maintained at −80 °C until required. Before their use, the frozen membranes were thawed and the membranes suspended in the assay buffer at a membrane concentration of 0.1 mg m^−1.
GppNHp was included to remove the G protein-coupled population of receptors that can result in two binding sites in membrane preparations, because the Motulsky–Mahan model is only appropriate for ligands competing at a single site. […] Both fluorescent ligands and unlabelled compounds were diluted in the binding assay buffer.
Kinetics acquisitions at intervals of 20 s were recorded using the standard settings of the reader for HTRF measurements. […] Specific binding was determined by subtracting the nonspecific HTRF ratio from the total HTRF ratio.
To accurately determine association rate (kon) and dissociation rate (koff) values, the observed rate of association (kob) was calculated using at least four different concentrations of PPHT-red. The appropriate concentration of PPHT-red was incubated in a 384-well Optiplate with human SNAP-D2LR-CHO cell membranes (2 μg per well) in assay binding buffer at 37 °C (final assay volume, 40 μl). The degree of PPHT-red bound to the receptor was assessed at multiple time points by HTRF detection, to allow construction of association kinetic curves. The resulting data were globally fitted to the association kinetic model (equation (8)) to derive a single best-fit estimate for kon and koff as described under ‘Data analysis'.
On the same 384-well Optiplate plate, the kinetic parameters of unlabelled ligand were assessed using a competition kinetic binding assay. This approach involves the simultaneous addition of both fluorescent ligand and competitor to receptor preparation so that at t=0 all receptors are unoccupied. […] The degree of PPHT-red bound to the receptor was assessed at multiple time points by HTRF detection. Nonspecific binding was determined as the amount of HTRF signal detected in the presence of spiperone (1 μM) and was subtracted from each time point. Each time point was conducted on the same 384-well plate incubated at 37 °C with shaking (100 r.p.m.) after every cycle.
Data were globally fitted using equation (7), to simultaneously calculate kon and koff.

SNAP-tagged human dopamine D2L, sequence (P14416 whole entry): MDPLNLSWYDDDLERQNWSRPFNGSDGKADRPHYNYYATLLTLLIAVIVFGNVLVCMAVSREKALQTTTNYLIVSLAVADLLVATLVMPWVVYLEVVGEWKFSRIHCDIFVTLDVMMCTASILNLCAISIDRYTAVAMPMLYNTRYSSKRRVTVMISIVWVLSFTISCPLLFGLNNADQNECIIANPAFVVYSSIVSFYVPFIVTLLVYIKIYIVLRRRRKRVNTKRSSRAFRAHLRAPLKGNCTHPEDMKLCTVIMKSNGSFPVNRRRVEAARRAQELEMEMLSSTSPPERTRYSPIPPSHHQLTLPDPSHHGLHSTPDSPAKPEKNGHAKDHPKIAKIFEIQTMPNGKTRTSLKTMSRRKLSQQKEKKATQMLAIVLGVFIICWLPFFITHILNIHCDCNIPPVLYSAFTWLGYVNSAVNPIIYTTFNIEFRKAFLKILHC

Row | Structure (SMILES) | time to maximal receptor occupancy (D2R) [min] | rate of dissociation of the fluorescent tracer [1] [min⁻¹]
1 | NCCc1ccc(O)c(O)c1 [Dopamine, dopamine] | ≤ 1 | –
2 | CN(C)C(=O)N[C@H]1CC[C@H](CCN2CCN(c3cccc(Cl)c3Cl)CC2)CC1 [Cariprazine, cariprazine] | ~10 | –
3 | CCCN(CCc1ccc(N)cc1)C1CCc2c(O)cccc2C1 (racemic) [PPHT, (±)-4′-amino-2-(N-phenethyl-N-propyl)-amino-5-hydroxytetralin] | – | 0.45

Reference: paper PMC4770093, “The role of kinetic context in apparent biased agonism at GPCRs” (Nature Communications, 2016)
